# Measured values taken from patent US12077503B2, “Substituted cyclic amides and their use as herbicides” (FMC CORPORATION, priority 2015, dated 2024).
# Assays:
# Type in all cases: in vivo
# [1] = tested on: barnyardgrass (Echinochloa crus-galli); test: Test B flooded paddy test; details: Flood, 250 g ai/ha; 0 to 100 scale where 0 is no effect and 100 is complete control; 13 to 15 d
# Method in brief: (§1)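 Flooding to 3 cm over soil accompanied treatment, which consisted of adding compound to the standing water around 2-leaf plants; depth was then maintained. Visual assessment versus controls followed at 13 to 15 d (scale 0–100, 0 meaning no effect).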
# rice (Oryra sativa) = test: Test B flooded paddy test; details: Flood, 250 g ai/ha; 0 to 100 scale where 0 is no effect and 100 is complete control; 13 to 15 d
# Method in brief: as §1
# [2] = tested on: sedge, umbrella (small-flower umbrella sedge, Cyperus difformis); test: Test B flooded paddy test; details: Flood, 250 g ai/ha; 0 to 100 scale where 0 is no effect and 100 is complete control; 13 to 15 d
# Method in brief: as §1
# [3] = tested on: ducksalad (Heteranthera limosa); test: Test B flooded paddy test; details: Flood, 250 g ai/ha; 0 to 100 scale where 0 is no effect and 100 is complete control; 13 to 15 d
# Method in brief: as §1
# [4] = tested on: barnyardgrass (Echinochloa crus-galli); test: Test A preemergence; details: for Plant response rating, Barnyardgrass: 125 g ai/ha; for Barnyardgrass plant response rating (0 to 100 scale, 0 is no effect, 100 is complete control): 500 g ai/ha, visual injury approx. 10 d
# Method in brief: (§2)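 Greenhouse, ~10 d after spray; visual injury vs untreated controls, 0 = no effect, 100 = complete control. Preemergence: directed soil spray over planted seeds. Postemergence: plants 2–10 cm, 1–2 leaf stage. Loam/sand blend. Compound in non-phytotoxic solvent with surfactant.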
# Kochia (Kochia scoparia) [5] = test: Test A preemergence; details: for Plant response rating, Kochia: 125 g ai/ha; for Kochia plant response rating (0 to 100 scale, 0 is no effect, 100 is complete control): 500 g ai/ha, visual injury approx. 10 d
# Method in brief: as §2
# [6] = tested on: giant foxtail (Setaria faberii); test: Test A preemergence; details: for Plant response rating, Foxtail, Giant: 125 g ai/ha; for Foxtail, Giant plant response rating (0 to 100 scale, 0 is no effect, 100 is complete control): 500 g ai/ha, visual injury approx. 10 d
# Method in brief: as §2
# [7] = tested on: pigweed (Amaranthus retroflexus); test: Test A preemergence; details: Preemergence; for Plant response rating, Pigweed: 125 g ai/ha, visual injury after approximately 10 d, 0 to 100 scale where 0 is no effect and 100 is complete control; for Pigweed plant response rating (0 to 100 scale, 0 is no effect, 100 is complete control): 500 g ai/ha, visual injury approx. 10 d
# [8] = tested on: ryegrass, Italian (Italian ryegrass, Lolium multiflorum); test: Test A preemergence; details: Preemergence; for Plant response rating, Ryegrass, Italian: 125 g ai/ha, visual injury after approximately 10 d, 0 to 100 scale where 0 is no effect and 100 is complete control; for Ryegrass, Italian plant response rating (0 to 100 scale, 0 is no effect, 100 is complete control): 500 g ai/ha, visual injury approx. 10 d
# Method in brief: as §2
# [9] = tested on: ragweed (common ragweed, Ambrosia elatior); test: Test A preemergence; details: Preemergence; for Plant response rating, Ragweed: 125 g ai/ha, visual injury after approximately 10 d, 0 to 100 scale where 0 is no effect and 100 is complete control; for Ragweed plant response rating (0 to 100 scale, 0 is no effect, 100 is complete control): 500 g ai/ha, visual injury approx. 10 d
# Method in brief: as §2
# [10] = tested on: barnyardgrass (Echinochloa crus-galli); test: Test A postemergence; details: for Barnyardgrass plant response rating: 125 g ai/ha, visual injury rating on 0 to 100 scale (0 no effect, 100 complete control), approx. 10 d; for Plant response rating, Barnyardgrass: 500 g ai/ha
# Method in brief: as §2
# Kochia (Kochia scoparia) [11] = test: Test A postemergence; details: for Kochia plant response rating: 125 g ai/ha, postemergence, visual injury rating on 0 to 100 scale (0 no effect, 100 complete control), approx. 10 d; for Plant response rating, Kochia: Postemergence, 500 g ai/ha, 0 to 100 scale where 0 is no effect and 100 is complete control
# Method in brief: as §2
# [12] = tested on: giant foxtail (Setaria faberii); test: Test A postemergence; details: for Foxtail, Giant plant response rating: 125 g ai/ha, postemergence, visual injury rating on 0 to 100 scale (0 no effect, 100 complete control), approx. 10 d; for Plant response rating, Foxtail, Giant: Postemergence, 500 g ai/ha, 0 to 100 scale where 0 is no effect and 100 is complete control
# Method in brief: as §2
# [13] = tested on: blackgrass (Alopecurus myosuroides); test: Test A postemergence; details: for Blackgrass plant response rating: 125 g ai/ha, visual injury rating on 0 to 100 scale (0 no effect, 100 complete control), approx. 10 d; for Plant response rating, Blackgrass: 500 g ai/ha
# Method in brief: as §2
# corn (Zea mays) = test: Test A postemergence; details: for Corn plant response rating: 125 g ai/ha, visual injury rating on 0 to 100 scale (0 no effect, 100 complete control), approx. 10 d; for Plant response rating, Corn: 500 g ai/ha
# Method in brief: as §2
# [14] = tested on: wheat (Triticum aestivum); test: Test A postemergence; details: for Wheat plant response rating: 125 g ai/ha, postemergence, visual injury rating on 0 to 100 scale (0 no effect, 100 complete control), approx. 10 d; for Plant response rating, Wheat: Postemergence, 500 g ai/ha, 0 to 100 scale where 0 is no effect and 100 is complete control
# Method in brief: as §2
# [15] = tested on: Galium (catchweed bedstraw, Galium aparine); test: Test A postemergence; details: for Galium plant response rating: 125 g ai/ha, postemergence, visual injury rating on 0 to 100 scale (0 no effect, 100 complete control), approx. 10 d; for Plant response rating, Galium: Postemergence, 500 g ai/ha, 0 to 100 scale where 0 is no effect and 100 is complete control
# Method in brief: as §2
# [16] = tested on: pigweed (Amaranthus retroflexus); test: Test A postemergence; details: for Pigweed plant response rating: 125 g ai/ha, postemergence, visual injury rating on 0 to 100 scale (0 no effect, 100 complete control), approx. 10 d; for Plant response rating, Pigweed: Postemergence, 500 g ai/ha, 0 to 100 scale where 0 is no effect and 100 is complete control
# Method in brief: as §2
# [17] = tested on: ryegrass, Italian (Italian ryegrass, Lolium multiflorum); test: Test A postemergence; details: for Ryegrass, Italian plant response rating: 125 g ai/ha, postemergence, visual injury rating on 0 to 100 scale (0 no effect, 100 complete control), approx. 10 d; for Plant response rating, Ryegrass, Italian: Postemergence, 500 g ai/ha, 0 to 100 scale where 0 is no effect and 100 is complete control
# Method in brief: as §2
# [18] = tested on: ragweed (common ragweed, Ambrosia elatior); test: Test A postemergence; details: for Ragweed plant response rating: 125 g ai/ha, postemergence, visual injury rating on 0 to 100 scale (0 no effect, 100 complete control), approx. 10 d; for Plant response rating, Ragweed: Postemergence, 500 g ai/ha, 0 to 100 scale where 0 is no effect and 100 is complete control
# Method in brief: as §2
# [19] = preemergence, 0 to 100 scale (0 no effect, 100 complete control)
# [20] = postemergence, 0 to 100 scale, 0 no effect, 100 complete control
# [21] = Preemergence, visual injury after approximately 10 d, 0 to 100 scale where 0 is no effect and 100 is complete control
# [22] = Postemergence, 0 to 100 scale where 0 is no effect and 100 is complete control
Structure (SMILES),"Plant response rating, Barnyardgrass [1]","Plant response rating, Rice (rice (Oryra sativa))","Plant response rating, Sedge, Umbrella [2]","Plant response rating, Ducksalad [3]","Barnyardgrass plant response rating (0 to 100 scale, 0 is no effect, 100 is complete control) ([4]; Preemergence)","Kochia plant response rating (0 to 100 scale, 0 is no effect, 100 is complete control) (Kochia (Kochia scoparia) [5]; Preemergence)","Foxtail, Giant plant response rating (0 to 100 scale, 0 is no effect, 100 is complete control) ([6]; Preemergence)","Plant response rating, Pigweed [7]","Pigweed plant response rating (0 to 100 scale, 0 is no effect, 100 is complete control) [7]","Plant response rating, Ryegrass, Italian [8]","Ryegrass, Italian plant response rating (0 to 100 scale, 0 is no effect, 100 is complete control) [8]","Plant response rating, Ragweed [9]","Ragweed plant response rating (0 to 100 scale, 0 is no effect, 100 is complete control) [9]",Barnyardgrass plant response rating ([10]; postemergence),Kochia plant response rating (Kochia (Kochia scoparia) [11]),"Plant response rating, Kochia (Kochia (Kochia scoparia) [11])","Foxtail, Giant plant response rating [12]","Plant response rating, Foxtail, Giant [12]",Blackgrass plant response rating ([13]; postemergence),Corn plant response rating (corn (Zea mays); postemergence),also measured
CN1CC(c2ccc(C(F)(F)F)cc2F)C(C(=O)Nc2ccccc2S(C)(=O)=O)C1=O (stereo not drawn) [Compound 473],40,20,0,75,100,80,100,80,90,0,90,20,70,90,40,80,70,90,40,0,"Plant response rating, Barnyardgrass [4, 19]: 80; Plant response rating, Kochia (Kochia (Kochia scoparia) [5]; [19]): 80; Plant response rating, Foxtail, Giant [6, 19]: 90; Plant response rating, Barnyardgrass [10, 20]: 90; Plant response rating, Blackgrass [13, 20]: 60; Plant response rating, Corn (corn (Zea mays); [20]): 40; Wheat plant response rating [14]: 0; Plant response rating, Wheat [14]: 40; Galium plant response rating [15]: 60; Plant response rating, Galium [15]: 60; Pigweed plant response rating [16]: 50; Plant response rating, Pigweed [16]: 90; Ryegrass, Italian plant response rating [17]: 0; Plant response rating, Ryegrass, Italian [17]: 40; Ragweed plant response rating [18]: 50; Plant response rating, Ragweed [18]: 50"
CC(C)=CCN1CC(c2cccc(C(F)(F)F)c2)C(C(=O)Nc2cccc(F)c2F)C1=O (stereo not drawn) [Compound 477],0,0,0,0,90,0,90,0,0,0,0,0,0,40,0,0,40,70,0,0,"Plant response rating, Barnyardgrass [4, 19]: 20; Plant response rating, Kochia (Kochia (Kochia scoparia) [5]; [19]): 0; Plant response rating, Foxtail, Giant [6, 19]: 90; Plant response rating, Barnyardgrass [10, 20]: 70; Plant response rating, Blackgrass [13, 20]: 30; Plant response rating, Corn (corn (Zea mays); [20]): 40; Wheat plant response rating [14]: 0; Plant response rating, Wheat [14]: 40; Galium plant response rating [15]: 0; Plant response rating, Galium [15]: 0; Pigweed plant response rating [16]: 0; Plant response rating, Pigweed [16]: 0; Ryegrass, Italian plant response rating [17]: 0; Plant response rating, Ryegrass, Italian [17]: 0; Ragweed plant response rating [18]: 0; Plant response rating, Ragweed [18]: 0"
O=C(Nc1cccc(F)c1F)C1C(=O)N(CC=CCl)CC1c1cccc(C(F)(F)F)c1 (stereo not drawn) [Compound 485],0,0,0,40,80,0,90,0,0,0,0,0,0,20,0,30,20,70,0,0,"Plant response rating, Barnyardgrass [4, 21]: 30; Plant response rating, Kochia (Kochia (Kochia scoparia) [5]; [21]): 0; Plant response rating, Foxtail, Giant [6, 21]: 70; Plant response rating, Barnyardgrass [10, 22]: 50; Plant response rating, Blackgrass [13, 22]: 0; Plant response rating, Corn (corn (Zea mays); [22]): 20; Wheat plant response rating [14]: 0; Plant response rating, Wheat [14]: 20; Galium plant response rating [15]: 0; Plant response rating, Galium [15]: 30; Pigweed plant response rating [16]: 0; Plant response rating, Pigweed [16]: 40; Ryegrass, Italian plant response rating [17]: 0; Plant response rating, Ryegrass, Italian [17]: 0; Ragweed plant response rating [18]: 0; Plant response rating, Ragweed [18]: 0"
O=C1NCC(c2cc(F)cc(Cl)c2)C1C(=O)Nc1ccc(F)cc1F (stereo not drawn) [Compound 493],60,25,0,80,90,20,90,0,0,0,20,0,30,90,0,20,90,90,20,0,"Plant response rating, Barnyardgrass [4, 21]: 90; Plant response rating, Kochia (Kochia (Kochia scoparia) [5]; [21]): 0; Plant response rating, Foxtail, Giant [6, 21]: 90; Plant response rating, Barnyardgrass [10, 22]: 90; Plant response rating, Blackgrass [13, 22]: 50; Plant response rating, Corn (corn (Zea mays); [22]): 70; Wheat plant response rating [14]: 0; Plant response rating, Wheat [14]: 30; Galium plant response rating [15]: 30; Plant response rating, Galium [15]: 40; Pigweed plant response rating [16]: 0; Plant response rating, Pigweed [16]: 0; Ryegrass, Italian plant response rating [17]: 20; Plant response rating, Ryegrass, Italian [17]: 50; Ragweed plant response rating [18]: 20; Plant response rating, Ragweed [18]: 20"
COCc1cccc(C2CNC(=O)C2C(=O)Nc2ccccc2Cl)c1 (stereo not drawn) [Compound 498],45,0,0,90,90,0,80,0,0,0,0,0,0,30,0,0,20,40,0,0,"Plant response rating, Barnyardgrass [4, 21]: 30; Plant response rating, Kochia (Kochia (Kochia scoparia) [5]; [21]): 0; Plant response rating, Foxtail, Giant [6, 21]: 40; Plant response rating, Barnyardgrass [10, 22]: 70; Plant response rating, Blackgrass [13, 22]: 0; Plant response rating, Corn (corn (Zea mays); [22]): 0; Wheat plant response rating [14]: 0; Plant response rating, Wheat [14]: 0; Galium plant response rating [15]: 0; Plant response rating, Galium [15]: 0; Pigweed plant response rating [16]: 0; Plant response rating, Pigweed [16]: 0; Ryegrass, Italian plant response rating [17]: 0; Plant response rating, Ryegrass, Italian [17]: 0; Ragweed plant response rating [18]: 0; Plant response rating, Ragweed [18]: 0"
